Test results: paper PMC4038709 (Bioorganic & medicinal chemistry, 2014)

These molecules were tested against T1, SET7 (Homo sapiens, UniProt Q8WTS6) (assay: SET7 ELISA methylation assay). Settings: comparison with parent analog, ELISA 40 µM (Fig. 3).
T1 sequence (Q8WTS6 52-366): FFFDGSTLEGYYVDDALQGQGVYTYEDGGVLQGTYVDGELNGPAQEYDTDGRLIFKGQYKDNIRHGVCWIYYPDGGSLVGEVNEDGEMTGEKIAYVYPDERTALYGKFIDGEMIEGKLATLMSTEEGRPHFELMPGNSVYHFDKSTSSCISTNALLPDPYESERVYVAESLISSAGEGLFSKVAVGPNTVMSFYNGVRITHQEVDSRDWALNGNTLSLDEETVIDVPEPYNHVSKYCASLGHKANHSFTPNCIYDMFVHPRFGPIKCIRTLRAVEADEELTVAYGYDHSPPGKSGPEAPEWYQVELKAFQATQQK
Assay type: biochemical

Row | SMILES | relative potency against SET7 (SAR, in words)
1 | O=C(O)CCCSCc1cccc(-n2ccc3cc(Br)ccc32)c1 [Compound 10, 4-(3-(5-bromo-1H-indol-1-yl)benzylthio)butanoic acid] | more potent inhibitors of SET7 than 7
2 | O=C(O)c1cccc(SCc2cccc(-n3ccc4cc(Br)ccc43)c2)c1 [Compound 11, 3-(3-(5-bromo-1H-indol-1-yl)benzylthio)benzoic acid] | more potent inhibitors of SET7 than 7

Further lines, results first:

Row | relative potency against SET7 (SAR, in words) | SMILES
3 | increased potency | O=C(O)c1cccc(SCc2cccc(-n3ccc4c(Br)cccc43)c2)c1 [Compound 12, 3-(3-(4-bromo-1H-indol-1-yl)benzylthio)benzoic acid]
4 | even more effective | O=C(O)c1cccc(SCc2cccc(-n3ccc4c(-c5ccccc5)cccc43)c2)c1 [Compound 13, 3-(3-(4-phenyl-1H-indol-1-yl)benzylthio)benzoic acid]
5 | greatly suppressed activity | O=C(O)c1ccc(-c2cccc3c2ccn3-c2cccc(CNc3cccc(C(=O)O)c3)c2)cc1 [Compound 15, 3-(3-(4-(4-carboxyphenyl)-1H-indol-1-yl)benzylamino)benzoic acid]

Same assay, conditions: read-out: inhibition of SET7

Row | inhibition at 40 µM [%] | SMILES
6 | 50 to 60 | O=C(O)c1cccc(SCc2cccc(-n3ccc4c(-c5ccccc5)cccc43)c2)c1 [Compound 13, 3-(3-(4-phenyl-1H-indol-1-yl)benzylthio)benzoic acid]
7 | 50 to 60 | O=C(O)c1cccc(NCc2cccc(-n3ccc4c(-c5ccccc5)cccc43)c2)c1 [Compound 14, 3-(3-(4-phenyl-1H-indol-1-yl)benzylamino)benzoic acid]

What follows are molecules tested against T1, SET7 (assay: SET7 scintillation proximity assay). Settings: SPA, 50 µM and 15 µM inhibitor, comparison with 19 (Fig. 4).
Assay type: biochemical

Row | relative potency against SET7 (SAR, in words) | SMILES
8 | reduced inhibitor potency | O=C(O)c1cccc(CNc2cccc(-n3ccc4c(-c5ccc(C(F)(F)F)cc5)ncnc43)c2)c1 [Compound 25]
9 | reduced inhibitor potency | O=C(O)c1cccc(NCc2ccc(-n3ccc4c(-c5ccc(C(F)(F)F)cc5)ncnc43)s2)c1 [Compound 26]
